Data on two molecules can be found in patent publication US20050215490A1, “Polyene polyketides and methods of treating bacterial infections” (Ecopia BioSciences, Inc., priority 2003, published 2005).

Structures are written as SMILES. ≈ marks a conversion by molar mass, not a printed value. Where two headings read alike, the source gives them in different places.

Data set [1] concerns Bacillus subtilis (ATCC™ 23857). Description: MIC, broth microdilution (NCCLS M7-A5). As to conditions: ATCC23857, B. subtilis ATCC 23857, Mueller-Hinton, 35° C., 18 hours, read-out: MIC. The class given is cell-based. The protocol: (§1) Antibacterial activity of Compounds 1 and 2 (Table 4) was measured by determining the minimal inhibitory concentration (MIC) necessary to obtain a complete inhibition of bacteria growth in eight indicator strains, namely Staphylococcus aureus (ATCC™ 6538P), Staphylococcus aureus MRS3 (ATCC™ 700699), Staphylococcus epidermidis (ATCC™ 12228), Bacillus subtilis (ATCC™ 23857), Bacillus megaterium (ATCC™ 14581), Enterococcus faecalis VRE-1 (ATCC™ 29212), Enterococcus faecalis VRE-2 (ATCC™ 51299) and Micrococcus luteus (ATCC™ 9341). Indicator strains preparation and MIC determination were performed according to the National Committee for Clinical Laboratory Standards (NCCLS) guideline M7-A5 Methods for Dilution Antimicrobial Susceptibility Tests for Bacteria That Grow Aerobically; Approved Standard-Fifth Edition. (NCCLS document M7-A5, ISBN 1-56238-394-9; NCCLS, 940 West Valley Road, Suite 1400, Wayne, Pa. 19087-1898 USA), the content of which is incorporated herein by reference.
(§2) Compounds 1 and 2 were prepared as 100× stock solution in DMSO, with concentrations ranging from 3.2 mg/ml to 0.00625 mg/ml (a two-fold dilution series over […]). An aliquot of each 100× stock solution was diluted 50-fold in test medium described below to give a set of ten (10) 2× solutions ranging from 64 to 0.125 μg/mL. 50 μl of each of the ten 2× solutions was aliquoted into the corresponding well of a 12-well row, with the final well reserved for medium alone control. Each test was made in duplicate.
(§3) Vancomycin (Sigma™) used as positive control compounds, was prepared as 2× stock solutions in sterile, double-distilled water (ddH2O) ranging from 64 μg/ml to […] (a two-fold dilution series over 10 points). An aliquot of 50 μl corresponding to each concentration (at 2×) was then transferred to 96-well microplates to obtain a series of eleven two-fold dilutions.
(§4) An isolated colony of each of the eight indicator strains was used to inoculate tubes containing 3 ml of test medium. Mueller-Hinton test medium was used for Staphylococcus aureus (ATCC™ 6538P), Staphylococcus aureus MRS3 (ATCC™ 700699), Staphylococcus epidermidis (ATCC™ 12228), Bacillus subtilis (ATCC™ 23857), Bacillus megaterium (ATCC™ 14581) and Micrococcus luteus (ATCC™ 9341) indicator strains, and BHI (Brain-Heart Infusion broth) test medium was used for Enterococcus faecalis VRE-1 (ATCC™ 29212) and Enterococcus faecalis VRE-2 (ATCC™ 51299) indicator strains. Cells were grown overnight at 28° C. with shaking. Inoculum density for each indicator strain was adjusted to OD600=0.1 in 5 ml 0.85% saline, then further diluted 1/100 in appropriate medium. 50 μl of the final dilution (in test medium) of each indicator strain was added to each well of a 12-well row. This brings the final dilution of the test article or control compound in solution to 1×. The final inoculum is approximately 5×10^5 CFU/ml.
(§5) The indicator strains were incubated with 11 concentrations of each of Compounds 1 and 2, Vancomycin (Sigma™) control compound and one media alone control. For MIC determination, assay plates were incubated at 35° C. for 18 hours.

For data set [2], the system named is Enterococcus faecalis VRE-1 (ATCC™ 29212). In words: MIC, broth microdilution (NCCLS M7-A5). The class given is cell-based. The settings on record: E. faecalis ATCC 29212, BHI, 35° C., 18 hours, read-out: MIC. The protocol: as §1, §2, §3, §4, §5
Data set [3] deals with Enterococcus faecalis VRE-2 (ATCC™ 51299). Description: MIC, broth microdilution (NCCLS M7-A5). It is filed as cell-based. The settings on record: E. faecalis ATCC 51299, BHI, 35° C., 18 hours, read-out: MIC. The method, then:
as §1, §2, §3, §4, §5

In data set [4] the test system is Staphylococcus aureus (ATCC™ 6538P). Description: MIC, broth microdilution (NCCLS M7-A5). It is filed as cell-based. The settings on record: read-out: MIC. The method, then: as §1, §2, §3, §4, §5
Data set [5] relates to Staphylococcus aureus MRS3 (ATCC™ 700699). In words: MIC, broth microdilution (NCCLS M7-A5). The class given is cell-based. As to conditions: read-out: MIC. The method, then: as §1, §2, §3, §4, §5
In data set [6] the test system is S. aureus MRSA-hVISA (ATCC™ 700699). In words: Minimal bactericidal concentration (NCCLS M26-A). The class given is cell-based, Staphylococcus aureus. As to conditions: for MBC: Staphylococcus aureus, more than 99.9% growth inhibition. The method, then: (§6) Minimal bactericidal concentration (MBC) was also determined for Compounds 1 and 2. […] MBC were measured against three Staphylococcus strains, namely sp. aureus MSSA (ATCC™ 6538P), sp. aureus MRSA-hVISA (ATCC™ 700699) and sp. epidermidis (ATCC™ 12228). The results, shown in Table 6 below, were consistent with bactericidal activity (MBC/MIC ratio were of 1 to 2).
(§7) MBC determination was performed according to the NCCLS guideline M26-A: Methods for Determining Bactericidal Activity of Antimicrobial Agents (NCCLS document […], ISBN 1-56238-394-9; NCCLS, 940 West Valley Road, Suite 1400, Wayne, Pa. 19087-1898 USA), the content of which is incorporated herein by reference.
(§8) Microdilutions broth assays were performed using the same procedure as for MIC determination, Example 6. 24 hours post-incubation, cells were collected in wells corresponding to the MIC, 2×MIC and 4×MIC. Collected cells were plated on agar media. MBC were determined as the drug concentration at which more than 99.9% growth inhibition was observed. As a reference for 100% growth, cells grown in media only were also plated.

Data set [7] relates to S. aureus MSSA (ATCC™ 6538P). In words: Minimal bactericidal concentration (NCCLS M26-A). The settings on record: for MBC: Staphylococcus aureus, more than 99.9% growth inhibition. The class given is cell-based, Staphylococcus aureus. The protocol:
as §6, §7, §8

Another data set concerns SRBC. In words: in vitro. It is filed as cell-based. As to conditions: at a concentration of 128 μg/ml. The method, then: A. Toxicity: Acute toxicities were determined using CD-1 female mice (supplied by Charles River Laboratories, Wilmington, Mass.) having a bodyweight of 18-25 g, and about 6 weeks of age. Compounds 1 and 2 at doses ranging from 1 to 70 mg/kg (formulated in 20% propylene glycol/water for a total volume of 10 μL/g of weight) were administered intraperitoneal (i.p.) and intravenous (i.v.) to groups of 5 mice (5 mice per concentration, per mode of administration). Two groups of 3 mice were injected with vehicle only. Mice were observed immediately after injection, within 4 hours and once a day for the subsequent days. Acute toxicity studies of Compound 1 in mice indicated no observable effect and high dose tolerability: 70 mg/kg intraperitoneal and 50 mg/kg intravenous (an MTD of 250 mg/kg was also determined by oral administration). […] In vitro Haemolytic activity results are also shown in Table 7, along with the in vivo toxicity and efficacy of Compound 1.

The mark [8] stands for this setting: ATCC6538P, S. aureus ATCC 6538P, Mueller-Hinton, 35° C., 18 hours.
[9] abbreviates: ATCC700699, S. aureus ATCC 700699, Mueller-Hinton, 35° C., 18 hours.

Regarding `CC(=CC=CC=CC=CC=CC(C)C(OC1OC(C(=O)O)C(O)C(O)C1O)C(C)=CC(C)CCCC=CC(C)CC=CCCCN(C)C(=N)N)C(=O)NC1=C(O)CCC1=O` (centres unmarked) [Compound 1, 3,4,5-trihydroxy-6-[1-[11-(2-hydroxy-5-oxocyclopent-1-enylcarbamoyl)-1-methyldodeca-2,4,6,8,10-pentaenyl]-2,4,10-trimethyl-16-(N-methyl-guanidino)-hexadeca-2,8,12-trienyloxy]-tetrahydropyran-2-carboxylic acid], the MIC is 1 µg/mL (≈ 1.19 µM) in data set [1]; 8 to 16 µg/mL (≈ 9.56 to 19.1 µM) in data set [2]; 16 µg/mL (≈ 19.1 µM) in data set [3]; 2 µg/mL (≈ 2.39 µM) in data set [4] (setting [8]); 2 µg/mL (≈ 2.39 µM) in data set [4] (Table 6, S. aureus MSSA); 4 µg/mL (≈ 4.78 µM) in data set [5] (setting [9]). Also, the MIC in data set [5] (Table 6, S. aureus MRSA-hVISA) came out at 4 µg/mL (≈ 4.78 µM). Moreover, the MBC/MIC in data set [6] is given as 1; in data set [7], 2. Also, the MBC in data set [6] and in data set [7] was 4 µg/mL (≈ 4.78 µM) throughout.

On to `C\C(=C/C=C/C=C/C=C/C=C/C(C)C(OC1OC(C(=O)O)C(O)C(O)C1O)/C(C)=C/C(C)CCC/C=C/C(C)C/C=C/CCCNC(=N)N)C(=O)NC1=C(O)CCC1=O` (centres unmarked) [Compound 2, 6-{16-guanidino-1-[11-(2-hydroxy-5-oxocyclopent-1-enylcarbamoyl)-1-methyldodeca-2,4,6,8,10-pentaenyl]-2,4,10-trimethylhexadeca-2,8,12-trienyloxy}-3,4,5-trihydroxy-tetrahydro-pyran-2-carboxylic acid], for which the MIC is 2 µg/mL (≈ 2.43 µM) in data set [1]; 16 µg/mL (≈ 19.4 µM) in data set [2]; 16 µg/mL (≈ 19.4 µM) in data set [3]; 1 µg/mL (≈ 1.22 µM) in data set [4] (setting [8]); 1 µg/mL (≈ 1.22 µM) in data set [4] (Table 6, S. aureus MSSA); 1 µg/mL (≈ 1.22 µM) in data set [5] (setting [9]). Moreover, the MIC in data set [5] (Table 6, S. aureus MRSA-hVISA) worked out at 1 µg/mL (≈ 1.22 µM). Besides, the MBC/MIC in data set [6] and in data set [7] was 2 throughout. For the same molecule, the MBC in data set [6] and in data set [7] was 2 µg/mL (≈ 2.43 µM) in each case. For the same molecule, in the data set on SRBC, the Haemolytic activity result is reported as “No Haemolytic activity”.
